According to patent publication US6905698B1, “Particulate carrier for biocide formulations” (Ineos Silicas Limited, priority 1998, dated 2005):
≈ marks a conversion by molar mass, not a printed value. Read-outs that look alike come from different tables or passages of the source.

Assays:
[1] = U.V. irradiation: biocide remaining
Protocol: (§1) The loaded biocides, together with the stock solutions, were spread on petri dishes and either placed in an incubator at 60° C. or exposed to U.V. irradiation in a Microscal unit (Miscoscal Limited, London) fitted with a 500 W high pressure mercury/tungsten lamp (wavelength>300 nm) operating at temperature 50° C. and a relative humidity in the region of 50%. […] Samples were withdrawn from the petri dishes undergoing thermal treatment and exposure to U.V. irradiation on a regular basis over a period in the region of 50 days. The amount of biocide remaining in each withdrawn sample was determined at the time of withdrawal using second derivative U.V.-visible Spectroscopy. The amount of biocide remaining in the stock solutions was determined by Gas Chromatography Mass Spectrometry. Relative peak heights corresponding to the residual parts of OIT, CIT and MIT were used to determine the concentrations of biocide in each sample.

[2] = Thermal ageing at 60° C.: biocide remaining; settings: Thermal Ageing 60° C.
Protocol: as §1

[3] = cited from earlier work
[4] = 50.98 %
Protocol: as §1

[5] = system: Cladosporium cladosporioides; assay: Water leaching of paint discs: zone of inhibition before and after 24 hours leach; type: cell-based; settings: acrylic high build paint; for Zone of Inhibition After Leaching: 24 hours water leach
Protocol: The method allows an assessment of the level of protection afforded by incorporating a biocide into a paint formulation. Filter discs (Whatman International Limited, Maidstone, Kent), Type 54, hardened 42.5 mm diameter were brush painted on one side of the disc with the test paints (24 hours between coats, 3 replicates per paint) to give an average loading of 0.05 g dried paint. The painted discs were cured at 60° C. for 2 days. One set of discs is then washed with a large volume of distilled water (20 liters) under controlled flow for 24 hours at ambient temperatures.
A freeze dried ampoule of Cladosporium cladosporioides (strain no. FS33 ex. Paint Research Association, Teddington, UK) was revived on potato dextrose agar (Oxoid Limited, Basingstoke, UK). A spore innoculum was prepared from the resultant sporing culture (5-7 days growth at 25° C.) by adding 5 ml of sterile distilled water to the surface of the culture on the agar and gently rubbing the surface with a sterile loop to dislodge the spores' mycelium. The resultant suspension was filtered through sterile wool and the filtrate used to seed molten (45° C.) potato dextrose agar prior to pouring into sterile Petri dishes.
Each painted disc was placed on the surface of the seeded agar plate, and the plates placed in a fridge (6-8° C.) for 24 hours to allow diffusion of the biocide. After this period, they were transferred to an incubator at 25° C. for five days. The diameter of the disc, plus any zone of inhibition (no fungal growth) around the discs was measured. An average of the three replicates is taken as a data point.
The biocidal efficiency of the two carriers (SD 2209 and SD 1866) loaded, at 30% by weight, with OIT and DCOIT in the acrylic high build formulation was compared before, and after, a 24 hours leach using procedure (ix) described hereinbefore. The paints containing the biocide carrying particles and those where the biocide was incorporated as the free biocide where used in the example.

[6] = system: Aureobasidium pullulans; assay: Minimum Inhibition Concentration (MIC); type: cell-based
Protocol: The retention factor, R, referred to above is determined from the equation R=A/P, where A represents the percentage active ingredient by weight remaining in the pore system after contacting with water according to the conditions defined herein and P represents the potency (Minimum Inhibition Concentration in mg of active ingredient per liter) of the biocide determined with respect to the reference microorganism Aureobasidium pullulans using the procedure defined herein.
The usefulness of the inorganic carrier particle will depend on the particular biocide being used, its effectiveness at various activity levels and the quantity of biocide (active ingredient) adsorbed and retained in the pore system. […]
The minimum inhibition concentration (MIC) is a measure of the potency of a biocide and comprises the minimum concentration (ppm) of a biocide active or formulation (normally quoted in terms of the active ingredient) determined experimentally in vitro to prevent the growth of a pure culture of a reference microorganism. […]
A standardised culture of the microbe under lest is prepared. […] The concentration at which no growth is detected is the minimum inhibition concentration (MIC) for that particlar biocide and reference organism. […]

[7] = system: standard mixed inoculum of BS 3900: Part G6: 1989 with Alternaria altarnata; assay: Prolonged protection on paint panels (BS 3900: Part G6: 1989); type: cell-based; settings: weathered panels
[8] = system: standard mixed inoculum of BS 3900: Part G6: 1989 with Alternaria altarnata; assay: as above; type: cell-based; settings: weathered panels; for Fungal growth rating % Cover D28: Day 28; for Fungal growth rating % Cover D84: Day 84
Protocol: Candidate carrier materials dispersed in water borne acrylic emulsion paint were subjected to the procedure of BS 3900: Part G6: 1989 to assess their long term fungicidal efficiency when compared with the biocide added directly to the paint.
Masterboard panels (150 mm×150 mm) were brush coated on one side with the test paints (2 coats, 24 hours between coats) and cured at 60° C. for two days. The coated panels were then weathered in a QUV apparatus (The Q-Panel Co. Bolton, UK) under the following conditions: 125±5 hours exposure to UVA (340 nm) at 40° C. with 1 hour water spray at approximately 24 hour intervals (5 in total). During the water spray the temperature cools to about 20° C.
After weathering the panels were cut into two equal samples and subjected to the procedure described in BS 3900: Part G6:1989. The control paint was the test paint without biocide. Alternaria altarnata was included in the standard mixed inoculum of BS 3900: Part G6: 1989.
Visual examination of the panels was carried out after 28, 36 and 84 days. In accordance with the standard procedure, the percentage cover of each panel by fungal growth was assessed.
Following on from the observations of Example 4, the two carriers SD 2209 and SD 1866 loaded, at 30% by weight, with OIT and DCOIT were incorporated into the paint formulation specified in Example 4 and subjected to BS 3900: Part G6 as described in procedure (x) hereinbefore to assess their long term film fungicidal efficiency in comparison with OIT and DCOIT added directly to the paint.
Masterboard panels (150 mm×150 mm) were brush coated on one side with the test paints (2 coats, 24 hours between coats) and cured at 60° C. for two days. The coated panels were then weathered in a QUV apparatus as described hereinbefore in procedure (x). After weathering the panels were cut into two equal samples and subjected to the procedure described in BS 3900: Part G6: 1989. The panels were exposed for 28, 36, and 84 days, in accordance with the standard procedure, and the percentage cover of each panel by fungal growth was assessed at these stages.

[9] = 50.98 %; remark: listed apart in the source
Protocol: as §1

[10] = system: Cladosporium cladosporioides; assay: Surface growth on painted discs after a further 14 days incubation; type: cell-based; settings: biocide 300 ppm; for Zone of Inhibition After Leaching (surface of paint discs examined for growth): after water leaching
Protocol: To further distinguish performance the inoculated petri dishes containing the painted discs were incubated for a further 14 days so as to examine the extent of encroachment of the fungi into the surface of the paint film. The dishes were removed from the incubator and the surface of the paint discs examined for growth.

SMILES | amount of original biocide remaining (MIT, CIT, MIT/CIT) ([1]; 0 days) | amount of original biocide remaining (MIT, CIT, MIT/CIT) ([1]; 7 days) | amount of original biocide remaining (MIT, CIT, MIT/CIT) ([1]; 25 days) | amount of original biocide remaining (MIT, CIT, MIT/CIT) ([1]; 32 days) | amount of original biocide remaining (MIT, CIT, MIT/CIT) ([1]; 39 days) | amount of original biocide remaining (MIT, CIT, MIT/CIT) ([2]; 0 days) | amount of original biocide remaining (MIT, CIT, MIT/CIT) ([2]; 7 days) | amount of original biocide remaining (MIT, CIT, MIT/CIT) ([2]; 12 days) | amount of original biocide remaining (MIT, CIT, MIT/CIT) ([2]; 18 days) | water solubility relative to OIT, in words [3] | Zone of Inhibition Before Leaching ([5]; biocide 300 ppm) [mm] | Zone of Inhibition After Leaching ([5]; biocide 300 ppm) | Zone of Inhibition Before Leaching ([5]; biocide 1,200 ppm) [mm] | Zone of Inhibition After Leaching ([5]; biocide 1,200 ppm) [mm] | Zone of Inhibition Before Leaching ([5]; biocide 4,000 ppm) [mm] | Zone of Inhibition After Leaching ([5]; biocide 4,000 ppm) [mm] | Fungal growth rating % Cover D56 ([7]; biocide 300 ppm) [% cover] | Fungal growth rating % Cover D56 ([7]; biocide 1,200 ppm) [% cover] | Fungal growth rating % Cover D28 ([8]; biocide 300 ppm) [% cover] | Fungal growth rating % Cover D84 ([8]; biocide 300 ppm) [% cover] | further results
Cn1sc(Cl)cc1=O [CIT, 5-Chloro-2-Methyl-4-isothiazolin-3-one] | 100 | 0 | 0 | 0 | 0 | 100 | 80 | 40 | 30 | more water soluble than OIT | – | – | – | – | – | – | – | – | – | – | amount of original biocide remaining (MIT, CIT, MIT/CIT) ([2]; 26 days): 0
Cn1sccc1=O [MIT, 2-Methyl-4-isothiazolin-3-one] | 100 | 78 | 69 | 62 | 50 | 100 | 95 | 90 | 80 | more water soluble than OIT | – | – | – | – | – | – | – | – | – | – | amount of original biocide remaining (MIT, CIT, MIT/CIT) ([1]; 55 days): 24; amount of original biocide remaining (MIT, CIT, MIT/CIT) ([2]; 40 days): 50
CCCCCCCCn1sccc1=O [OIT, 2-Octyl-4-Isothiazolin-3-one] | – | – | – | – | – | – | – | – | – | – | 32 | OVERGROWTH | >42 | 1 | >42 | 1 | 85 | 35 | 35 | 85 | amount of original biocide remaining (OIT) ([4]; 0 h): 100; amount of original biocide remaining (OIT) ([4]; 336 h): 17; amount of original biocide remaining (OIT) ([4]; 1008 h): 1; MIC ([6]; Aureobasidium pullulans, reference microorganism Aureobasidium pollulens): 36 mg/L (≈ 169 µM); Minimum Inhibition Concentration (MIC) ([6]; reference microorganism Aureobasidium pullulans): 36 mg of active ingredient per liter; Fungal growth rating % Cover D56 ([7]; biocide 1,400 ppm): 0 % cover; Fungal growth rating % Cover D28 ([8]; biocide 1,200 ppm): 3 % cover; Fungal growth rating % Cover D84 ([8]; biocide 1,200 ppm): 35 % cover; Fungal growth rating % Cover D28 ([8]; biocide 1,400 ppm): 0 % cover; Fungal growth rating % Cover D84 ([8]; biocide 1,400 ppm): 5 % cover; amount of original biocide remaining (OIT) ([9]; 0 h): 100; amount of original biocide remaining (OIT) ([9]; 288 h): 78; amount of original biocide remaining (OIT) ([9]; 432 h): 65; amount of original biocide remaining (OIT) ([9]; 960 h): 50; Zone of Inhibition Before Leaching (surface of paint discs examined for growth) [10]: None; Zone of Inhibition After Leaching (surface of paint discs examined for growth) [10]: Growth
CCCCCCCCn1sc(Cl)c(Cl)c1=O [DCOIT, 4,5-Dichloro-2-Octyl-4-Isothiazolin-3-one] | – | – | – | – | – | – | – | – | – | – | 22 | OVERGROWTH | 25 | 1 | 38 | 2 | 85 | 55 | 23 | 85 | Fungal growth rating % Cover D56 ([7]; biocide 4,000 ppm): 0 % cover; Fungal growth rating % Cover D28 ([8]; biocide 1,200 ppm): 8 % cover; Fungal growth rating % Cover D84 ([8]; biocide 1,200 ppm): 68 % cover; Fungal growth rating % Cover D28 ([8]; biocide 4,000 ppm): 0 % cover; Fungal growth rating % Cover D84 ([8]; biocide 4,000 ppm): 5 % cover; Zone of Inhibition Before Leaching (surface of paint discs examined for growth) [10]: None; Zone of Inhibition After Leaching (surface of paint discs examined for growth) [10]: Growth
